Experimental data from PMC6362038, “Secondary structures and cell-penetrating abilities of arginine-rich peptide foldamers” (Scientific Reports, 2019).
Numbered stars: 1 amine (or outer) side, 2 acyl side, 3 side chain; on linkers, the order of the positions; unused ones are H or OH. Square brackets hold non-standard residues; d marks the D form. Peptide text beside a SMILES is read from it. * marks the point of attachment. 5FAM = O=C1OC2(c3ccc(O)cc3Oc3cc(O)ccc32)c2ccc(C(=O)*)cc21; X1 = CO[C@H]1CC(N[*:1])(C(=O)[*:2])C[C@@H]1OC; αMeL = CC(C)C[C@](C)(N)C(=O)O; Ac5c = NC1(C(=O)O)CCCC1

What was measured:
[1] = Resistance to protease digestion with trypsin; assay type: in vitro ADME; settings: 10 µM peptide in 2.5 × 10^−6 w/v% trypsin/PBS, 37 °C, RP-HPLC, α-CHCA internal standard, read-out: intact peptide after incubation with trypsin
From the text: (§1) Next, we examined the stability of peptides against protease digestion using trypsin (Fig. 4a) and pronase (Fig. 4b). One of the advantages of peptide foldamers containing dAAs is their high resistance to degradation by proteases[38]–[40]. Trypsin is a serine protease that cleaves amide bonds at the C terminus of cationic amino acids such as Arg and lysine. Pronase is a non-specific protease mixture produced in the culture supernatant of Streptomyces griseus. Ac5c, Ac5c^dOM, (αMe)Leu, and Leu peptides were incubated with trypsin or pronase for 1, 2, and 4 h, and then rate of intact peptide was evaluated by RP-HPLC using α-cyano-4-hydroxycinnamic acid (α-CHCA) as an internal standard. Leu peptide was promptly degraded by both trypsin and pronase, and reached 0% intact peptide after 4 h incubation in a similar manner to Arg peptide reported previously[24],[25]. On the other hand, approximately 80% of Ac5c, Ac5c^dOM, and (αMe)Leu peptides remained intact even after 4 h incubation. Introduction of dAAs into peptides markedly elevated resistance to protease digestion, whether or not peptides formed stable helical structures. In other words, peptides composed of only natural α-amino acids were easily degraded by proteases independently of their peptide secondary structures.
(§2) One-hundred microliters of peptide solution (10 µM) in 2.5 × 10^−6 w/v% trypsin or pronase/phosphate buffer saline (PBS) was incubated at 37 °C for 0, 1, 2, and 4 h. After each incubation time, 250 µL of 1% TFA/PBS solution was added to inactivate the proteases, and 50 µL of 1/2 diluted saturated α-CHCA solution was added as an internal standard, followed by HPLC analysis, which was performed using the above-mentioned conditions.

[2] = Resistance to protease digestion with pronase; assay type: in vitro ADME, Streptomyces griseus; settings: 10 µM peptide in 2.5 × 10^−6 w/v% pronase/PBS, 37 °C, RP-HPLC, α-CHCA internal standard, read-out: intact peptide after incubation with pronase
From the text: as §1, §2

[3] = tested on: CHO-K1 cells; test: Cellular uptake of CF-labeled peptides into CHO-K1 cells (flow cytometry); assay type: cell-based; settings: n = 3; for cellular uptake, course over incubation time: CHO-K1, 1 µM peptide, 2, 6 and 24 h, compared with peptides of only natural α-amino acids; for cellular uptake compared with Arg peptide / cellular uptake, rank among the peptides containing dAAs: CHO-K1, 1 µM peptide; for cellular uptake compared with Arg peptide: DMEM 10% FBS; for cellular uptake, rank among the peptides containing dAAs: 2-24 h
Method: Cellular uptake of peptides was assessed against HeLa (Fig. 5a) and CHO-K1 cells (Fig. 5b) at a concentration of 1 µM and various incubation times (2, 6, and 24 h). […] Not only stabilities against protease digestion but also other factors might contribute to prolongation of the cell-penetrating ability of peptides. […] The number of Arg residues in Arg-rich peptides is very important for their cell-penetrating ability, and six Arg are not enough. […] Substitution of Arg in Arg peptide with Ac5c, Ac5c^dOM, or (αMe)Leu positively affected its cell-penetrating ability compared with Aib. In comparison, among the peptides containing dAAs, (αMe)Leu peptide was the best for HeLa cell, Ac5c peptide was the best for CHO-K1 cell, and Ac5c^dOM peptide was the worst for both cell types (Fig. 5). Although the best peptides were different depending on cell type, the worst peptide was same for both cell types. […] Taken together, a stable helical structure by introducing dAAs into Arg-rich peptide enhanced their cell-penetrating abilities.
HeLa or CHO-K1 cells were seeded on 24-well culture plates (100,000 cells/well) and incubated in 400 µL of DMEM containing 10% FBS. The medium was then replaced with fresh medium, and a peptide solution was added to each well at a concentration of 1 µM. After each incubation time, the medium was removed and cells were washed with ice-cold PBS with heparin (20 units/mL) and trypsinized. After the addition of medium containing 10% FBS, fluorescence intensity was detected and acquired using an On-chip Flow (On-chip Biotechnologies Co., Ltd, Tokyo, Japan). The results are presented as a mean and standard deviation obtained from 3 samples.

SMILES | remaining at 4 h, 10 µM [1] [%] | remaining at 4 h, 10 µM [2] [%] | cellular uptake, course over incubation time [3] | cellular uptake compared with Arg peptide ([3]; 6 h) | cellular uptake compared with Arg peptide ([3]; 24 h) | cellular uptake, rank among the peptides containing dAAs [3]
CC(C)C[C@](C)(NC(=O)[C@H](CCCNC(=N)N)NC(=O)[C@H](CCCNC(=N)N)NC(=O)[C@](C)(CC(C)C)NC(=O)[C@H](CCCNC(=N)N)NC(=O)[C@H](CCCNC(=N)N)NC(=O)[C@](C)(CC(C)C)NC(=O)[C@H](CCCNC(=N)N)NC(=O)[C@H](CCCNC(=N)N)NC(=O)CNC(=O)c1ccc2c(c1)C(=O)OC21c2ccc(O)cc2Oc2cc(O)ccc21)C(N)=O [(αMe)Leu peptide] (5FAM-GRR[αMeL]RR[αMeL]RR[αMeL]-NH2) | ~80 | ~80 | prolonged cell-penetrating ability | higher than that of Arg peptide | higher than that of Arg peptide | –
N=C(N)NCCC[C@H](NC(=O)CNC(=O)c1ccc2c(c1)C(=O)OC21c2ccc(O)cc2Oc2cc(O)ccc21)C(=O)N[C@@H](CCCNC(=N)N)C(=O)NC1(C(=O)N[C@@H](CCCNC(=N)N)C(=O)N[C@@H](CCCNC(=N)N)C(=O)NC2(C(=O)N[C@@H](CCCNC(=N)N)C(=O)N[C@@H](CCCNC(=N)N)C(=O)NC3(C(N)=O)CCCC3)CCCC2)CCCC1 [Ac5c peptide] (5FAM-GRR[Ac5c]RR[Ac5c]RR[Ac5c]-NH2) | ~80 | ~80 | prolonged cell-penetrating ability | higher than that of Arg peptide | higher than that of Arg peptide | the best
CO[C@H]1CC(NC(=O)[C@H](CCCNC(=N)N)NC(=O)[C@H](CCCNC(=N)N)NC(=O)C2(NC(=O)[C@H](CCCNC(=N)N)NC(=O)[C@H](CCCNC(=N)N)NC(=O)C3(NC(=O)[C@H](CCCNC(=N)N)NC(=O)[C@H](CCCNC(=N)N)NC(=O)CNC(=O)c4ccc5c(c4)C(=O)OC54c5ccc(O)cc5Oc5cc(O)ccc54)C[C@H](OC)[C@@H](OC)C3)C[C@H](OC)[C@@H](OC)C2)(C(N)=O)C[C@@H]1OC [Ac5c^dOM peptide] (5FAM-GRR[X1]RR[X1]RR[X1]-NH2) | ~80 | ~80 | prolonged cell-penetrating ability | – | higher than that of Arg peptide | the worst
